Reference: patent US11787775B2, “Therapeutic compounds and methods of use” (priority 2020, dated 2023)
Like-named read-outs stand apart in the source and are kept apart here.

Columns and labels:
Experiment in all cases: TEAD lipid pocket TR-FRET (Lipid HTRF) probe competition assay
Type in all cases: binding
TEAD2 = TEAD2 (Homo sapiens (Human), UniProt Q15562)
Description: (§1) His-tagged TEAD proteins are pre-incubated with TEAD project compounds for 30 minutes or 4 hours at room temperature. Biotinylated lipid pocket probes are then added to the TEAD/Compound mixture and incubated for 60 minutes at room temperature. The lipid pocket probe competes with the test compound for the TEAD lipid pocket until equilibrium is reached. After 60 minutes, Europium labelled anti-His (Perkin Elmer #ADO 110) and XL665 labelled streptavidin (CIS Bio 610SAXAC) are added to the TEAD/test compound/lipid pocket mixture and incubated for 30 minutes or 4 hours. […] If a TEAD lipid pocket binder such as binds and displaces the lipid pocket probe, the disruption of the TEAD:probe interaction results in a decrease in TR-FRET signal. The potency of compounds as TEAD lipid pocket binders is determined by IC50 value generated using a non-linear 4 parameter curve fit.
(§2) Note that the “Compound Number” in Table 2 and Table 3 corresponds to the “Compound Number” in Table 1.

TEAD3 = TEAD3 (Homo sapiens (Human), UniProt Q99594); details: 4 hours incubation with compound
Description: as §1, §2

TEAD1 = TEAD1 (Homo sapiens (Human), UniProt P28347)
Description: as §1, §2

TEAD4 = TEAD4 (Homo sapiens (Human), UniProt Q15561)
Description: as §1, §2

[1] = 4 hours incubation with compound, read-out: Lipid HTRF TEAD2 IC50
[2] = 4 hours incubation with compound, read-out: Lipid HTRF TEAD1 IC50
[3] = 4 hours incubation with compound, read-out: Lipid HTRF TEAD4 IC50
[4] = Lipid HTRF TEAD4 IC50, 4 hours incubation with compound

TEAD1, sequence (P28347 whole entry, species assumed): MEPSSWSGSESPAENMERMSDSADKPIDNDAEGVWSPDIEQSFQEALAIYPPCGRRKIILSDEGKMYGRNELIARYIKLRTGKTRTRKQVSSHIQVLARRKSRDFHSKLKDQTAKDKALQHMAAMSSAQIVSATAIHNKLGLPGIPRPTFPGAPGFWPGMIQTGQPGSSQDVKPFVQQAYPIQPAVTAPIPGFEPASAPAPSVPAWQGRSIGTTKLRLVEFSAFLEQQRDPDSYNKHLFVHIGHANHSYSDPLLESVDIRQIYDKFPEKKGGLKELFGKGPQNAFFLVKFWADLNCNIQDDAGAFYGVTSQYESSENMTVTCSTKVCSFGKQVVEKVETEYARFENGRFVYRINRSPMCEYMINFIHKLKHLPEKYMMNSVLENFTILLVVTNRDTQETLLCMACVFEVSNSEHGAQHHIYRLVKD
TEAD2, sequence (Q15562 whole entry): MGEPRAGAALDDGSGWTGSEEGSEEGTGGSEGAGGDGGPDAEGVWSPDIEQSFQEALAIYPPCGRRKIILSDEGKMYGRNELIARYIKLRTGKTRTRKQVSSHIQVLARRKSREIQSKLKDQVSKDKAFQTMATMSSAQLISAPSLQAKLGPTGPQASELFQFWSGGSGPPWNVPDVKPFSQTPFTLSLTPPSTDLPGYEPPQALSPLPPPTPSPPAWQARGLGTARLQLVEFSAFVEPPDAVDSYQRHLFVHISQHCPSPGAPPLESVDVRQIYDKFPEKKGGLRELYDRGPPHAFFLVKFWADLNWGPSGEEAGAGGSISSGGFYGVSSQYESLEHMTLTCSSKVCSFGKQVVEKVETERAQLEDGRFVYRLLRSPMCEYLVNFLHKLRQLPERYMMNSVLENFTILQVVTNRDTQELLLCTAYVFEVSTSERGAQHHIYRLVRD
TEAD3, sequence (Q99594 whole entry, species assumed): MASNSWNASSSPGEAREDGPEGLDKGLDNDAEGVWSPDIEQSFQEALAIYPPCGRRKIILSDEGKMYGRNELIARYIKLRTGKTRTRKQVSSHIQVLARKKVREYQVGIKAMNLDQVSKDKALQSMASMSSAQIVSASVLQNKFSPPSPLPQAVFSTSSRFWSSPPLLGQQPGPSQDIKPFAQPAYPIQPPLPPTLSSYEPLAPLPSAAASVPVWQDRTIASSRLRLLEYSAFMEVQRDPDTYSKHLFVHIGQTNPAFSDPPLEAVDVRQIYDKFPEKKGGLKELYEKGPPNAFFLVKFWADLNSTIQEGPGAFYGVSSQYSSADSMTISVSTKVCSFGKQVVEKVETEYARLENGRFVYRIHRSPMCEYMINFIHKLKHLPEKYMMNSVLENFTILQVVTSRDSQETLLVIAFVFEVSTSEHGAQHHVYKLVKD
TEAD4, sequence (Q15561 whole entry, species assumed): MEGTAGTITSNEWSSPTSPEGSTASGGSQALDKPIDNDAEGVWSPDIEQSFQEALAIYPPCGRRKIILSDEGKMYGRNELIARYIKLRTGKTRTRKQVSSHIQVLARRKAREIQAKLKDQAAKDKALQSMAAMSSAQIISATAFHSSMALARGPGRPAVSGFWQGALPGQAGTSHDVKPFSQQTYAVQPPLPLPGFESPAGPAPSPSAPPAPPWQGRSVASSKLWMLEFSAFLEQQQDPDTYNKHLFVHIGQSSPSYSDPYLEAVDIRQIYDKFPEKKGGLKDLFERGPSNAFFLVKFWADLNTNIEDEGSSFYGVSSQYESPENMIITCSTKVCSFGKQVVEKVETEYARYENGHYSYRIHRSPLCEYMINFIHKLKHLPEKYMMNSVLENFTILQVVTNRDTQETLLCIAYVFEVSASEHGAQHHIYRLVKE

Compound `C=C(CNc1cc(-c2ncc(C(C)C)s2)c2c(c1C#N)CCO2)C(=O)NO` [Compound 27, 2-[[[4-cyano-7-(5-isopropylthiazol-2-yl)-2,3-dihydrobenzofuran-5-yl]amino]methyl]prop-2-enehydroxamic acid] has an IC50 (TEAD2; [1]) of 110 nM, an IC50 (TEAD3) of over 50000 nM and an IC50 (TEAD1; [2]) of 310 nM. It also gave an IC50 (TEAD4; [3]) of 170 nM.
`[2H]C1([2H])COc2c(-c3ccc(C(C)C)cc3)cc(NCC(=C)C(=O)NO)c(C#N)c21` [Compound 29, 2-[[[4-cyano-3,3-dideuterio-7-(4-isopropylphenyl)-2H-benzofuran-5-yl]amino]methyl]prop-2-enehydroxamic acid] gave an IC50 (TEAD2; [1]) of 10 nM, an IC50 (TEAD3) of 430 nM and an IC50 (TEAD1; [2]) of 60 nM. For the same compound, the IC50 (TEAD4; [3]) was 40 nM.
Work on `C=C(CNc1cc(-c2nc(C(C)C)cs2)c2c(c1C#N)CCO2)C(=O)NO` [Compound 31, 2-[[[4-cyano-7-(4-isopropylthiazol-2-yl)-2,3-dihydrobenzofuran-5-yl]amino]methyl]prop-2-enehydroxamic acid] yielded an IC50 (TEAD2; [1]) of 860 nM, an IC50 (TEAD3) of over 50000 nM and an IC50 (TEAD1; [2]) of over 50000 nM. For the same compound, the IC50 (TEAD4; [3]) was 36000 nM.
Work on `C=C(CNc1cc(-c2cc(C(C)C)cs2)c2c(c1C#N)CCO2)C(=O)O` [Compound 32, 2-[[[4-cyano-7-(4-isopropyl-2-thienyl)-2,3-dihydrobenzofuran-5-yl]amino]methyl]prop-2-enoic acid] yielded an IC50 (TEAD2; [1]) of 40 nM, an IC50 (TEAD3) of 430 nM and an IC50 (TEAD1; [2]) of 10 nM. For the same compound, the IC50 (TEAD4; [3]) was 10 nM.
`[2H]C1([2H])COc2c(-c3ccc(C(C)C)cc3)cc(NCC(=C)C(N)=O)c(C#N)c21` [Compound 33, 2-[[[4-cyano-3,3-dideuterio-7-(4-isopropylphenyl)-2H-benzofuran-5-yl]amino]methyl]prop-2-enamide] showed an IC50 (TEAD2; [1]) of 60 nM, an IC50 (TEAD3) of 1400 nM and an IC50 (TEAD1; [2]) of 180 nM. It also gave an IC50 (TEAD4; [4]) of 80 nM.
With `C=C(CNc1cc(-c2ccc(OC(F)(F)F)cc2)c2c(c1CO)CCO2)C(N)=O` [Compound 35, 2-[[[4-(hydroxymethyl)-7-[4-(trifluoromethoxy)phenyl]-2,3-dihydrobenzofuran-5-yl]amino]methyl]prop-2-enamide] the IC50 (TEAD2; [1]) was 30 nM, the IC50 (TEAD3) was 1700 nM and the IC50 (TEAD1; [2]) was 160 nM. The IC50 (TEAD4; [3]) was 250 nM.
In the case of `C=C(CNc1cc(-n2ccc(C(C)C)n2)c2c(c1C#N)CCO2)C(=O)NO` [Compound 36, 2-[[[4-cyano-7-(3-isopropylpyrazol-1-yl)-2,3-dihydrobenzofuran-5-yl]amino]methyl]prop-2-enehydroxamic acid], the IC50 (TEAD2; [1]) is reported as 710 nM, the IC50 (TEAD3) is reported as over 50000 nM and the IC50 (TEAD1; [2]) is reported as over 50000 nM. The IC50 (TEAD4; [3]) was over 50000 nM.
With `[2H]C1([2H])Cc2c(C#N)c(NCC(=C)C(=O)NO)cc(-c3ccc(OC(F)(F)F)cc3)c2O1` [Compound 37, 2-[[[4-cyano-2,2-dideuterio-7-[4-(trifluoromethoxy)phenyl]-3H-benzofuran-5-yl]amino]methyl]prop-2-enehydroxamic acid] the IC50 (TEAD2; Lipid HTRF TEAD2 IC50, 4 hours incubation with compound) was 10 nM, the IC50 (TEAD3) was 420 nM and the IC50 (TEAD1; [2]) was 50 nM. The IC50 (TEAD4; [3]) was 50 nM.
For `C=C(CNc1cc(-c2ccc(S(F)(F)(F)(F)F)cc2)c2c(c1C#N)CCO2)C(=O)NO` [Compound 38, 2-[[[4-cyano-7-[4-(pentafluoro-lambda6-sulfanyl)phenyl]-2,3-dihydrobenzofuran-5-yl]amino]methyl]prop-2-enehydroxamic acid], the IC50 (TEAD2; [1]) was 30 nM, the IC50 (TEAD3) was 710 nM and the IC50 (TEAD1; [2]) was 90 nM. The IC50 (TEAD4; [3]) was 80 nM.
In the case of `C=C(CNc1cc(-c2ccc(OC(F)(F)F)cc2)c2c(c1C#N)CCO2)C(=O)NO` [Compound 39, 2-[[[4-cyano-7-[4-(trifluoromethoxy)phenyl]-2,3-dihydrobenzofuran-5-yl]amino]methyl]prop-2-enehydroxamic acid], the IC50 (TEAD2; [1]) is reported as 10 nM, the IC50 (TEAD3) is reported as 400 nM and the IC50 (TEAD1; [2]) is reported as 40 nM. For the same compound, the IC50 (TEAD4; [3]) was 60 nM.
`[2H]C1([2H])COc2c(-c3ccc(C(C)C)cc3)cc(NCC(=C)C(=O)O)c(C#N)c21` [Compound 40, 2-[[[4-cyano-3,3-dideuterio-7-(4-isopropylphenyl)-2H-benzofuran-5-yl]amino]methyl]prop-2-enoic acid] showed an IC50 (TEAD2; [1]) of 40 nM, an IC50 (TEAD3) of 680 nM and an IC50 (TEAD1; Lipid HTRF TEAD1 IC50, 4 hours incubation with compound) of 20 nM. For the same compound, the IC50 (TEAD4; [4]) was 20 nM.
For `C=C(CNc1cc(-c2ccc(OC(F)(F)F)cc2)c2ncsc2c1C#N)C(=O)NO` [Compound 41, 2-[[[7-cyano-4-[4-(trifluoromethoxy)phenyl]-1,3-benzothiazol-6-yl]amino]methyl]prop-2-enehydroxamic acid], the IC50 (TEAD2; [1]) was 10 nM, the IC50 (TEAD3) was 660 nM and the IC50 (TEAD1; [2]) was 80 nM. It also gave an IC50 (TEAD4; [3]) of 40 nM.
In the case of `C=C(CNc1cc(-c2ccc(OC(F)(F)F)cc2)c2c(c1C#N)CCO2)C(=O)N(C)O` [Compound 43, 2-[[[4-cyano-7-[4-(trifluoromethoxy)phenyl]-2,3-dihydrobenzofuran-5-yl]amino]methyl]-N-hydroxy-N-methyl-prop-2-enamide], the IC50 (TEAD2; [1]) is reported as 1700 nM, the IC50 (TEAD3) is reported as 18000 nM and the IC50 (TEAD1; [2]) is reported as 400 nM. For the same compound, the IC50 (TEAD4; [3]) was 520 nM.
With `C=C(CNc1cc(-c2ccc(OC(F)(F)F)cc2)c2c(c1C#N)CCO2)C(N)=O` [Compound 44, 2-[[[4-cyano-7-[4-(trifluoromethoxy)phenyl]-2,3-dihydrobenzofuran-5-yl]amino]methyl]prop-2-enamide] the IC50 (TEAD2; [1]) was 40 nM, the IC50 (TEAD3) was 1200 nM and the IC50 (TEAD1; [2]) was 110 nM. It also gave an IC50 (TEAD4; [3]) of 140 nM.
`C=C(CNc1cc(-c2ccc(S(F)(F)(F)(F)F)cc2)c2c(c1C#N)CCO2)C(=O)O` [Compound 45, 2-[[[4-cyano-7-[4-(pentafluoro-lambda6-sulfanyl)phenyl]-2,3-dihydrobenzofuran-5-yl]amino]methyl]prop-2-enoic acid] was tested, and the IC50 (TEAD2; [1]) was 170 nM, the IC50 (TEAD3) was 920 nM and the IC50 (TEAD1; [2]) was 30 nM. It also gave an IC50 (TEAD4; [3]) of 80 nM.
For `C=C(CNc1cc(-c2ccc(OC(F)(F)F)cc2)c2c(c1CO)CCO2)C(=O)NO` [Compound 46, 2-[[[4-(hydroxymethyl)-7-[4-(trifluoromethoxy)phenyl]-2,3-dihydrobenzofuran-5-yl]amino]methyl]prop-2-enehydroxamic acid], the IC50 (TEAD2; [1]) was 10 nM, the IC50 (TEAD3) was 440 nM and the IC50 (TEAD1; [2]) was 50 nM. For the same compound, the IC50 (TEAD4; [3]) was 60 nM.
`C=C(CNc1cc(-c2ccc(S(F)(F)(F)(F)F)cc2)c2c(c1C#N)CCO2)C(N)=O` [Compound 48, 2-[[[4-cyano-7-[4-(pentafluoro-lambda6-sulfanyl)phenyl]-2,3-dihydrobenzofuran-5-yl]amino]methyl]prop-2-enamide] showed an IC50 (TEAD2; [1]) of 220 nM, an IC50 (TEAD3) of 2600 nM and an IC50 (TEAD1; [2]) of 250 nM. The IC50 (TEAD4; [3]) was 260 nM.
`C=C(CNc1cc(-c2ncc(C(C)C)s2)c2c(c1C#N)CCO2)C(=O)O` [Compound 49, 2-[[[4-cyano-7-(5-isopropylthiazol-2-yl)-2,3-dihydrobenzofuran-5-yl]amino]methyl]prop-2-enoic acid] gave an IC50 (TEAD2; [1]) of 240 nM, an IC50 (TEAD3) of 2800 nM and an IC50 (TEAD1; [2]) of 310 nM. The IC50 (TEAD4; [3]) was 90 nM.
Compound `C=C(CNc1cc(-c2ccc(S(F)(F)(F)(F)F)cc2)c2ncsc2c1C#N)C(=O)NO` [Compound 51, 2-[[[7-cyano-4-[4-(pentafluoro-lambda6-sulfanyl)phenyl]-1,3-benzothiazol-6-yl]amino]methyl]prop-2-enehydroxamic acid] has an IC50 (TEAD2; [1]) of 30 nM, an IC50 (TEAD3) of 1200 nM and an IC50 (TEAD1; [2]) of 200 nM. The IC50 (TEAD4; [3]) was 60 nM.
